Drawing on ChEMBL document CHEMBL3297717, “Synthesis and potent ionophoric activity of a squaramide-linked bis(choloyl) conjugate” (Bioorg Med Chem Lett, 2014), this text covers Kin, Activity and EC50 for three molecules.

Assay [1] is described as follows: Ionophoric activity across egg-yolk L-alpha-phosphatidylcholine-based liposomal membrane assessed as induction of pH discharge in membrane by measuring initial rate constant after 21 mins by Hill plot analysis.
Assay [2] in a line: Ionophoric activity across egg-yolk L-alpha-phosphatidylcholine-based liposomal membrane assessed as induction of pH discharge in membrane at 1 to 5 mol% after 21 mins by pyramine dye-based fluorescence assay.
Assay [3] is described as follows: Ionophoric activity across egg-yolk L-alpha-phosphatidylcholine-based liposomal membrane assessed as induction of pH discharge in membrane after 21 mins by pyramine dye-based fluorescence assay.
Assay [4] is described as follows: Ionophoric activity across egg-yolk L-alpha-phosphatidylcholine-based liposomal membrane assessed as chloride efflux after 5 mins.
Assay [5] can be described thus: Ionophoric activity across egg-yolk L-alpha-phosphatidylcholine-based liposomal membrane dispersed in HEPES buffer containing Na2SO4 assessed as chloride efflux at 3 mol% after 5 mins.
Assay [6] in a line: Ionophoric activity across egg-yolk L-alpha-phosphatidylcholine-based liposomal membrane assessed as induction of pH discharge in membrane at 3 mol% after 20 mins by pyramine dye-based fluorescence assay in presence of LiCl.
A short description of assay [7]: Ionophoric activity across egg-yolk L-alpha-phosphatidylcholine-based liposomal membrane assessed as induction of pH discharge in membrane at 3 mol% after 20 mins by pyramine dye-based fluorescence assay in presence of NaNO3.
Assay [8] is described as follows: Ionophoric activity across egg-yolk L-alpha-phosphatidylcholine-based liposomal membrane assessed as induction of pH discharge in membrane at 3 mol% after 20 mins by pyramine dye-based fluorescence assay in presence of NaCl.
A short description of assay [9]: Ionophoric activity across egg-yolk L-alpha-phosphatidylcholine-based liposomal membrane assessed as induction of pH discharge in membrane at 3 mol% after 20 mins by pyramine dye-based fluorescence assay in presence of KCl.
A short description of assay [10]: Ionophoric activity across egg-yolk L-alpha-phosphatidylcholine-based liposomal membrane assessed as induction of pH discharge in membrane at 3 mol% after 20 mins by pyramine dye-based fluorescence assay in presence of RbCl.
Assay [11] in a line: Ionophoric activity across egg-yolk L-alpha-phosphatidylcholine-based liposomal membrane assessed as induction of pH discharge in membrane at 3 mol% after 20 mins by pyramine dye-based fluorescence assay in presence of CsCl.
A short description of assay [12]: Ionophoric activity across egg-yolk L-alpha-phosphatidylcholine-based liposomal membrane assessed as induction of pH discharge in membrane at 3 mol% after 20 mins by pyramine dye-based fluorescence assay in presence of NaI.
Assay [13] in a line: Ionophoric activity across egg-yolk L-alpha-phosphatidylcholine-based liposomal membrane assessed as induction of pH discharge in membrane at 3 mol% after 20 mins by pyramine dye-based fluorescence assay in presence of NaBr.

Structures are written as SMILES. Activity calls are given as the source filed them. The calls are words filed in the database; no cut-off is given here.

With `C[C@H](CCC(=O)N[C@@H](CCCCN)C(=O)NCc1ccc(CNC(=O)[C@H](CCCCN)NC(=O)CC[C@@H](C)[C@H]2CC[C@H]3[C@@H]4[C@H](O)C[C@@H]5C[C@H](O)CC[C@]5(C)[C@H]4C[C@H](O)[C@]23C)cc1)[C@H]1CC[C@H]2[C@@H]3[C@H](O)C[C@@H]4C[C@H](O)CC[C@]4(C)[C@H]3C[C@H](O)[C@]12C`, the Kin in [1] was 5.52 ×10⁻² /min.

As for `C[C@H](CCC(=O)NCc1ccc(CNC(=O)CC[C@@H](C)[C@H]2CC[C@H]3[C@@H]4[C@H](O)C[C@@H]5C[C@H](O)CC[C@]5(C)[C@H]4C[C@H](O)[C@]23C)cc1)[C@H]1CC[C@H]2[C@@H]3[C@H](O)C[C@@H]4C[C@H](O)CC[C@]4(C)[C@H]3C[C@H](O)[C@]12C`, the Kin in [1] worked out at 2.23 ×10⁻² /min.

With `C[C@H](CCC(=O)Nc1ccc(Nc2c(Nc3ccc(NC(=O)CC[C@@H](C)[C@H]4CC[C@H]5[C@@H]6[C@H](O)C[C@@H]7C[C@H](O)CC[C@]7(C)[C@H]6C[C@H](O)[C@]45C)cc3)c(=O)c2=O)cc1)[C@H]1CC[C@H]2[C@@H]3[C@H](O)C[C@@H]4C[C@H](O)CC[C@]4(C)[C@H]3C[C@H](O)[C@]12C`, the outcome in assay [2], in [5], in [6], in assay [8], in assay [9] and in [10] was Active. Moreover, the result in assay [11] was Active. In addition, in [3], the EC50 came to 3.82 mol%. Further, the Kin in assay [1] was 0.6 min⁻¹. Also, the Activity entry in assay [4] was “Dose-dependent effect”. In addition, the result in assay [7], in assay [12] and in [13] was inactive.
